According to patent publication US20250099420A1, “SMALL MOLECULE MODULATORS OF GPR139 COMPLEX” (University of Florida Research Foundation, Incorporated, priority 2022, published 2025):
Where two headings read alike, the source gives them in different places.

How the values were obtained:
parental HEK cells = assay: HEK parental Agonist Counterscreen Assay (non-transfected cells); format: cell-based; conditions: for Averaged Max % Response (±St. Dev.): activity relative to known control
From the text: The high control for the agonist counterscreen was Forskolin not acetylcholine.

GPR139 = biological target: T1, GPR139 (Homo sapiens, UniProt Q6DWJ6); assay: GPR139 Agonist titration / agonist counterscreen assay (calcium detection, HEK-GPR139 cells); format: cell-based; parameters: expressed in transfected cells; host or cells: HEK Aequorin cells, Maxcyte transient transfection; conditions: GPR139 Agonist Activity; for Averaged Max % Response (±St. Dev.): activity relative to known control; for EC50: read-out: EC50
T1 sequence (Q6DWJ6 1-353): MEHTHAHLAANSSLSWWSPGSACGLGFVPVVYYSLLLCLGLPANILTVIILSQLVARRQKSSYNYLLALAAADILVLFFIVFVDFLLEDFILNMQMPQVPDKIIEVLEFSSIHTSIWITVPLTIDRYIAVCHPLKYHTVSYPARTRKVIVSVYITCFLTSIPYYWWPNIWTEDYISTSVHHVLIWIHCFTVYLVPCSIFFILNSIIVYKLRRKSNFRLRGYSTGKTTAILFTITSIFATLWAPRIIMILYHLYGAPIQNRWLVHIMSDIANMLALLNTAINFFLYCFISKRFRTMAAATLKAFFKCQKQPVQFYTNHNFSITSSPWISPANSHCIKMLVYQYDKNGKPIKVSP
Description: GPR activity was assessed using a calcium detection assay. […] Negative control samples were treated with DMSO. […] Intracellular calcium was measured using Calcium 5.

[1] = Homo sapiens, HEK293, HEK Agonist Activity section of Table 4 (parental HEK counterscreen)
[2] = values printed in E-notation without unit

SMILES | Lipophilic Efficiency (logD) (parental HEK cells; HEK Agonist Activity section) | Lipophilic Efficiency (logP) (parental HEK cells; HEK Agonist Activity section) | Averaged Max % Response (±St. Dev.) (parental HEK cells; HEK Agonist Activity section) | EC50 (parental HEK cells; [1]) | Averaged Max % Response (±St. Dev.) (GPR139) | Lipophilic Efficiency (logD) (GPR139; based on logD) | Lipophilic Efficiency (logP) (GPR139; based on logP) | Hill Slope (GPR139; fitted dose-response curve) | Efficiency Ligand (GPR139; ligand efficiency) | EC50 (GPR139; [2]) | Efficiency Ligand (GPR139) | Lipophilic Efficiency (logD) (GPR139) | Lipophilic Efficiency (logP) (GPR139) | Hill Slope (GPR139) | EC50 (GPR139; HEK-GPR139 cells) | EC50 (parental HEK cells; HEK Agonist Activity section of Table 4 (parental HEK counterscreen)) | Lipophilic Efficiency (logD) (parental HEK cells; HEK Agonist Activity) | Lipophilic Efficiency (logP) (parental HEK cells; HEK Agonist Activity) | Averaged Max % Response (±St. Dev.) (parental HEK cells; HEK Agonist Activity) | EC50 (parental HEK cells; Homo sapiens, HEK293, HEK Agonist Activity, parental non-transfected HEK cells)
O=C(CN1CCN(C/C=C/c2ccccc2)CC1)NCCCc1ccccc1 [SR-01000062290] | 1.34 | 1.10 | 11.38 ± 4.42% | > 14900 nM | 128.31 ± 15.25% | 3.75 | 3.51 | 0.74 | 0.36 | 58.8 nM |  |  |  |  |  |  |  |  |  | 
C=C(CC1C(=O)CC(c2ccccc2)(c2ccccc2)C1=O)C(C)CC1=CC=CC1 (centres unmarked) [SR-01000062305] | 1.70 | 1.70 | −4.71 ± 5.40% | > 14800 nM | 121.63 ± 9.56% |  |  |  |  |  | 0.27 | 2.66 | 2.66 |  |  |  |  |  |  | 
O=C(CN1C(=O)OC(O)(c2ccc(Cl)cc2Cl)C1=O)Nc1ccccc1Cl (centres unmarked) [SR-01000062419] | 0.98 | 0.97 | 19.92 ± 2.49% | > 14500 nM | 105.27 ± 9.38% |  |  |  |  |  | 0.33 | 2.50 | 2.49 | 0.63 | 438 nM |  |  |  |  | 
O=C(CN1C(=O)NC2(CCc3ccccc3C2)C1=O)N1CCc2ccccc2C1 (centres unmarked) [SR-01000062726] | 2.40 | 2.40 | −12.60 ± 9.55% | > 14500 nM | 103.63 ± 9.70% | 4.25 | 4.25 | 0.89 | 0.32 | 205 nM |  |  |  |  |  |  |  |  |  | 
O=C(CNC(=O)c1ccc(Br)o1)NC1CCCc2ccccc21 (centres unmarked) [SR-01000064101] | 2.64 | 2.64 | 10.45 ± 2.67% | > 14900 nM | 90.33 ± 2.09% |  |  |  |  |  | 0.38 | 4.09 | 4.09 | 1.15 | 527 nM |  |  |  |  | 
CC1(c2ccc3c(c2)OCO3)NC(=O)N(CC(=O)NC2CCCC2)C1=O (centres unmarked) [SR-01000065547] | 3.84 | 3.84 | 2.31 ± 13.81% | > 14100 nM | 87.19 ± 17.95% |  |  |  |  |  | 0.34 | 5.32 | 5.32 | 0.59 | 465 nM |  |  |  |  | 
O=C(CCCOc1ccc(Cl)cc1Cl)NNC(=O)Cc1ccc2c(c1)OCCO2 [SR-01000065653] | 1.88 | 1.87 | −8.07 ± 6.14% |  | 89.15 ± 7.00% | 4.06 | 4.05 | 1.10 | 0.34 | 94.4 nM |  |  |  |  |  | > 14100 nM |  |  |  | 
CC1(c2ccc3ccccc3c2)NC(=O)N(CC(=O)Nc2ccccc2Cl)C1=O (centres unmarked) [SR-01000066950] |  |  |  |  | 117.24 ± 4.32% | 3.74 | 3.74 | 0.61 | 0.36 | 40.5 nM |  |  |  |  |  |  | 1.21 | 1.21 | 2.95 ± 8.11% | > 13800 nM
O=C(CCCOc1ccc(Cl)cc1Cl)NNC(=O)Cc1ccccc1 [SR-01000067982] | 1.37 | 1.37 | 10.05 ± 3.22% | > 14800 nM | 88.62 ± 11.28% | 3.55 | 3.54 | 0.94 | 0.39 | 98.6 nM |  |  |  |  |  |  |  |  |  | 
CN(Cc1ccc[nH]1)C(=O)CN1C(=O)NC2(CCc3ccccc3C2)C1=O (centres unmarked) [SR-01000068179] | 2.52 | 2.52 | 2.62 ± 3.03% | > 14700 nM | 87.03 ± 9.26% |  |  |  |  |  | 0.31 | 3.64 | 3.64 | 0.84 | 1100 nM |  |  |  |  | 
